The values below come from ChEMBL document CHEMBL6134792, “Discovery of selective LATS inhibitors via scaffold hopping: enhancing drug-likeness and kinase selectivity for potential applications in regenerative medicine” (RSC Med Chem, 2024).

The data set can be described thus: Clearance in male mouse at 20 mg/kg, po or 5 mg/kg, iv by LC-MS/MS analysis. As to conditions: in vivo. The data set is classed as ADME, organism-based.

Consider `O=C(/N=c1\sccn1Cc1ccccc1)c1n[nH]c2ncccc12`, for which the CL worked out at 28.3 mL/min/kg.
